Measurements from patent US20090264345A1, “MACROCYCLIC PEPTIDES AND METHODS FOR MAKING AND USING THEM” (priority 2006, published 2009).
Like-named read-outs stand apart in the source and are kept apart here.

Experiments:
[1] = amide bond, 15-membered ring, DEPBT/HATU/TBTU/DIEA, THF/MeCN/CH2Cl2 2:2:1, 7.0 mM, 2 steps
[2] = test system: virus-encoded topoisomerase I; conditions: poxvirus MCV; Hwang et al. 1999; cited from earlier work
MSS colon cancers = conditions: drug of choice for MSS colon cancers; cited from earlier work

In the case of `CC(C)C[C@@H]1NC(=O)[C@H](C(C)C)NC(=O)[C@H](CC(C)C)N(C)C(=O)[C@@H](CC(C)C)NC(=O)[C@H](Cc2ccccc2)NC1=O` [cyclo[-Phe-Leu-Val-Xaa-Xaa-] (Xaa-4 NMeLeu, Xaa-5 DLeu)], the ring closure, isolated yield ([1]; from H-dLeu-MeLeu-Val-Leu-Phe-OH?) is reported as 40%.
With `CC(C)C[C@@H]1NC(=O)[C@H](CC(C)C)NC(=O)[C@@H](Cc2ccccc2)NC(=O)[C@H](CC(C)C)NC(=O)[C@H](C(C)C)NC1=O` [cyclo[-Xaa-Leu-Val-Leu-Leu-] (Xaa-1 DPhe)] the ring closure, isolated yield ([1]; from H-Leu-Leu-Val-Leu-dPhe-OH?) was 39%.
In the case of `CC(C)C[C@@H]1NC(=O)[C@H](CC(C)C)NC(=O)[C@@H](Cc2ccccc2)NC(=O)[C@@H](CC(C)C)NC(=O)[C@H](C(C)C)NC1=O` [cyclo[-Xaa-Xaa-Val-Leu-Leu-] (Xaa-1 DPhe, Xaa-2 DLeu)], the ring closure, isolated yield ([1]; from H-Leu-Leu-Val-dLeu-dPhe-OH?) is reported as 37%.
Molecule `CC(C)C[C@@H]1NC(=O)[C@H](Cc2ccccc2)NC(=O)[C@H](CC(C)C)NC(=O)[C@H](C(C)C)NC(=O)[C@@H](CC(C)C)NC1=O` [cyclo[-Phe-Leu-Val-Xaa-Leu-] (Xaa-4 DLeu)] has a ring closure, isolated yield ([1]; from H-Leu-dLeu-Val-Leu-Phe-OH?) of 53%.
`CC(C)C[C@@H]1NC(=O)[C@H](Cc2ccccc2)NC(=O)[C@H](CC(C)C)NC(=O)[C@@H](C(C)C)NC(=O)[C@H](CC(C)C)NC1=O` [cyclo[-Phe-Leu-Xaa-Leu-Leu-] (Xaa-3 DVal)] showed a ring closure, isolated yield ([1]; from H-Leu-Leu-dVal-Leu-Phe-OH?) of 65%.
`CC(C)C[C@@H]1NC(=O)[C@H](C(C)C)NC(=O)[C@@H](CC(C)C)NC(=O)[C@@H](CC(C)C)NC(=O)[C@H](Cc2ccccc2)NC1=O` [cyclo[-Phe-Leu-Val-Xaa-Xaa-] (Xaa-4 DLeu, Xaa-5 DLeu)] showed a ring closure, isolated yield ([1]; from H-dLeu-dLeu-Val-Leu-Phe-OH?) of 35%.
For `CC(C)C[C@@H]1NC(=O)[C@H](Cc2ccccc2)NC(=O)[C@H](CC(C)C)NC(=O)[C@H](C(C)C)NC(=O)[C@H](CC(C)C)NC1=O` [cyclo[-Phe-Leu-Val-Leu-Leu-]], the ring closure, isolated yield ([1]; from H-Leu-Leu-Val-Leu-Phe-OH?) was 65%.
For `CC(C)C[C@@H]1NC(=O)[C@H](Cc2ccccc2)NC(=O)[C@@H](CC(C)C)NC(=O)[C@H](C(C)C)NC(=O)[C@H](CC(C)C)NC1=O` [cyclo[-Phe-Xaa-Val-Leu-Leu-] (Xaa-2 DLeu)], the ring closure, isolated yield ([1]; from H-Leu-Leu-Val-dLeu-Phe-OH?) was 85%.
With `CC(C)C[C@@H]1NC(=O)[C@H](Cc2ccccc2)NC(=O)[C@@H](CC(C)C)N(C)C(=O)[C@H](C(C)C)NC(=O)[C@H](CC(C)C)NC1=O` [cyclo[-Phe-Xaa-Val-Leu-Leu-] (Xaa-2 DNMeLeu)] the ring closure, isolated yield ([1]; from H-Leu-Leu-Val-dMeLeu-Phe-OH?) was 81%.
For Sansalvamide A [San A], the “inhibition of topoisomerase I” value [2] is given as “inhibitor”.
In the case of `O=c1[nH]cc(F)c(=O)[nH]1` [5-fluorouracil], the IC50 (MSS colon cancers) is given as 5 µM.
